The results in this text go back to patent US11007385B2, “Use of cellular extracts for skin rejuvenation” (Regenics AS, priority 2012, dated 2021).

The subject of experiment [1] is human skin fibroblasts (hSF). The experiment in a line: Proliferation / cell number of human skin fibroblasts. The format is cell-based. Also noted: increase in cell number: unit not given here. The settings on record: 8 days; for Cell % change: vs control.
In experiment [2] the test system is human skin fibroblasts (hSF). Put plainly: Collagen secretion from human skin fibroblasts (Biocolor Sircol collagen assay). The format is cell-based. The conditions noted are these: for Collagen Abs / Collagen/cell / Coll/cell % change: 8 days.
Procedure: LEX 42 and different concentrations of retinoic acid (0.01M and 0.1M) are applied to fibroblasts (HsF cells) in vitro and collagen production and secretion is measured. Briefly, on day 0, fibroblasts are seeded in 25 cm^2 cell culture flasks at a density of 2.8×10^5 cells per flask. On day 1, the culture media is replaced with fresh culture media supplemented with 0.5% LEX, 0.01M RA, or 0.1M RA. Control cells are grown with cell culture medium without LEX or RA. The cultures are continued for seven days, with a media (LEX/RA/control) change at day 4. On day 8, the cells are washed 3× with PBS before adding cell culture medium with low serum (1% FBS). On day 9, the culture medium (1.4 ml) is harvested and collagen content assessed using a collagen kit (Biocolor, on eht world wide web at biocolor.co.uk/index.php/assay-kits/sircol-1/). The absorbance is measured with Nanodrop 2000c (Thermo).
LEX 51 was applied to fibroblasts (HsF cells) in vitro, and collagen production and secretion was assayed. The procedure was as described above, except with the modification of the assay on day 10, were 2 ml of the culture medium is harvested and collagen content assessed using a collagen kit (Biocolor, biocolor.co.uk/index.php/assay-kits/sircol-1/), with the adaptation of isolating collagen from 2 ml of culture medium compared to 1 ml as described in the kit manual. The absorbance is measured at 550 nm (the base line was set to 750 nm) with the Nanodrop 2000 (Thermo)
Collagen assay from Biocolor was used to analyze the effect of LEX on hSF (fibroblast). This assay measures the produced and secreted collagen from hSF (fibroblasts). The measurements from un-stimulated control was compared to LEX stimulated hSF (fibroblasts) and noted as fold induction.
The level of collagen was measured after 8 days of treatment with 0% or 0.5% reconstituted freeze dried salmon egg extract I in complete growth medium supplemented with 10% FBS. Ascorbic acid (1 μg/ml) and 0.5% salmon egg extract I was used as positive controls.

Where “and” joins values, the source holds several entries; their conditions need not be identical. Identical values can stand only once.

Turning to `CC1=C(/C=C/C(C)=C/C=C/C(C)=C/C(=O)O)C(C)(C)CCC1` [RA, retinoic acid], in experiment [1] (0.01 μM RA), the “final # of cells” value came to 959833 and the Cell % change is recorded as 10.1%. Further, in experiment [1] (0.1 μM RA), the “final # of cells” value is listed as 906000 and the Cell % change is reported as 3.9%. Further, in experiment [1] (0.01M RA), the “increase in cell number” value came to 3.99. Further, the “increase in cell number compared to control” value in experiment [1] (0.1M RA) stood at 10%. In experiment [2] (0.01 μM RA), the “Collagen Abs” value came to 0.046 and the Collagen/cell is 4.7925E−08. In addition, the Coll/cell % change in experiment [2] (0.01 μM RA, vs control) is listed as −16.5%. In experiment [2] (0.1 μM RA), the “Collagen Abs” value is reported as 0.046 and the Collagen/cell turned out to be 5.077E−08. In experiment [2] (0.1 μM RA, vs control), the Coll/cell % change is −11.5% and the “decrease of collagen per cell” value is 11.5%. Also, in experiment [2] (0.01M RA, vs control), the “decrease of collagen produced per cell” value stood at 16.5%. Moreover, the “fold change of collagen produced per cell compared to control cultures” value in experiment [2] (RA cultures (0.01M and 0.1M), eight days) was 0.84 and 0.89.
